Key:
[1] = system: MCF-7, MDA-MB-231, or MDA-MB-436 cells; assay: MTT assay, Eth and/or 3-MA; type: cell-based, human; conditions: Eth 3.5, 3.0 or 3.0 µM and 3-MA 1 mM, 24 h
Method: (§1) Cells were seeded into 96-well plate and pre-cultured for 24 h, then treated with Eth for 24. Cell cytotoxicity was determined by MTT assay. The absorbance was measured at 490 nm by automated microplated reader (BioTek Instruments, Inc., Winooski, VT, USA), and the cell death rate was calculated as followed: inhibition rate (%) = (average A490 of the control group − average A490 of the experimental group)/(average A490 of the control group − average A490 of the blank group) × 100%. Cell viability was estimated by trypan blue dye exclusion.
Figure 2 Eth induces autophagy in BC cells. (A): MCF-7, MDA-MB-231, or MDA-MB-436 cells were treated with increasing concentrations of Eth for 24 h. Western blot was performed using antibodies indicated. GAPDH was used as the loading control. […] (C): MCF-7, MDA-MB-231, or MDA-MB-436 cells transfected with pQCXIP-GFP-LC3 plasmid were treated with increasing concentrations of Eth for 24 h, and assessed by immunoﬂuorescence analyses. […] (D): MDA-MB-231 or MDA-MB-436 cells transfected with pQCXIP-GFP-LC3 plasmid were treated with Eth (2.0 µM) and/or 3-MA (1 mM) for 24 h, and assessed by immunoﬂuorescence analyses. […] (F): MCF-7, MDA-MB-231, or MDA-MB-436 cells were treated with Eth (3.5 µM, 3.0 µM, or 3.0 µM) and/or 3-MA (1 mM) for 24 h and analyzed by MTT assay. […]

[2] = system: LC3 redistribution to autophagosomes in BC cells; assay: GFP-LC3 autophagy assay (confocal microscopy); type: cell-based, human; conditions: 24 h
Source text: The cells were transfected with pQCXIP-GFP-LC3 plasmid using the Lipofectamine 3000 (Invitrogen; Thermo Fisher Scientific, Inc.) according to the recommended protocol by the manufacturer and then fixed in 4% paraformaldehyde. The percentage of cells with fluorescent dots representing GFP-LC3 translocation was counted. For visualization of cell nucleus, DAPI was used. Sections were observed using an Olympus laser scanning confocal microscope with imaging software (Olympus Fluoview FV-1000, Tokyo, Japan).
Figure 2 Eth induces autophagy in BC cells. (A): MCF-7, MDA-MB-231, or MDA-MB-436 cells were treated with increasing concentrations of Eth for 24 h. Western blot was performed using antibodies indicated. GAPDH was used as the loading control. (B): MCF-7 (MDA-MB-231 or MDA-MB-436) cells were treated with 2.4 µM (2.0 µM or 2.0 µM) Eth for the indicated times, and cell lysates were subjected to western blot assay. (C): MCF-7, MDA-MB-231, or MDA-MB-436 cells transfected with pQCXIP-GFP-LC3 plasmid were treated with increasing concentrations of Eth for 24 h, and assessed by immunoﬂuorescence analyses. Scale bar = 20 µm. (D): MDA-MB-231 or MDA-MB-436 cells transfected with pQCXIP-GFP-LC3 plasmid were treated with Eth (2.0 µM) and/or 3-MA (1 mM) for 24 h, and assessed by immunoﬂuorescence analyses. Scale bar = 20 µm. […] (F): MCF-7, MDA-MB-231, or MDA-MB-436 cells were treated with Eth (3.5 µM, 3.0 µM, or 3.0 µM) and/or 3-MA (1 mM) for 24 h and analyzed by MTT assay. (G): MCF-7, MDA-MB-231, or MDA-MB-436 cells were treated with Eth (2.4 µM, 2.0 µM, or 2.0 µM) and/or 3-MA (1 mM) for 24 h, and western blot was performed using antibodies indicated. *P < 0.05.
(§2) Figure 3 Eth induces autophagy through the AMPK/mTORC1 signaling. […] (D): MDA-MB-231 or MDA-MB-436 cells transfected with pQCXIP-GFP-LC3 plasmid were treated with Eth (2.0 µM) and/or CC (25 µM) for 24 h, and assessed by immunoﬂuorescence analyses. […] (G): MDA-MB-231 or MDA-MB-436 cells transfected with pQCXIP-GFP-LC3 plasmid were treated with Eth (1.0 µM or 1.6 µM) and/or Met (10 mM) for 24 h, and assessed by immunoﬂuorescence analyses. […]

[3] = system: LC3-II and Beclin-1 in MCF-7, MDA-MB-231, and MDA-MB-436 cells; assay: Western blot of autophagy markers; type: cell-based, human; conditions: Eth 2.4, 2.0 or 2.0 µM and 3-MA 1 mM, 24 h
Method: Cells were lysed in radioimmunoprecipitation assay buffer containing 50 mM Tris, pH 8.0, 150 mM NaCl, 0.1% SDS, 0.5% sodium deoxycholate, 1% NP-40, 1 mM DTT, 1 mM NaF, 1 mM sodium orthovanadate, 1 mM phenylmethylsulfonyl fluoride (PMSF; Sigma-Aldrich; Merck KGaA), and 1% protease inhibitors cocktail (EMD Millipore, Billerica, MA, USA). Protein concentration was determined using the Bradford method. Equal amounts of sample (25 µg) were separated by SDS-PAGE (8–12% gels). Electrophoresed proteins were then transferred onto polyvinylidene fluoride membranes (EMD Millipore, Billerica, MA, USA). The membranes were blocked with 5% skimmed milk in Tris-buffered saline at room temperature for 1 h. Following blocking, membranes were incubated overnight at 4°C with primary antibodies and then rinsed with Tris-buffered saline with Tween 20. […]
Figure 2 Eth induces autophagy in BC cells. […] (C): MCF-7, MDA-MB-231, or MDA-MB-436 cells transfected with pQCXIP-GFP-LC3 plasmid were treated with increasing concentrations of Eth for 24 h, and assessed by immunoﬂuorescence analyses. […] (D): MDA-MB-231 or MDA-MB-436 cells transfected with pQCXIP-GFP-LC3 plasmid were treated with Eth (2.0 µM) and/or 3-MA (1 mM) for 24 h, and assessed by immunoﬂuorescence analyses. […] (F): MCF-7, MDA-MB-231, or MDA-MB-436 cells were treated with Eth (3.5 µM, 3.0 µM, or 3.0 µM) and/or 3-MA (1 mM) for 24 h and analyzed by MTT assay. […]

AMPKα = assay: Streptavidin agarose affinity assay; type: binding, human; conditions: cells treated with 4 μM Bio-Eth for 12 h
Method: Cell pellets were lysed and the supernatant collection was incubated with indicated antibodies overnight at 4°C, after which protein A/G Plus beads (Santa Cruz Biotechnology) were added and incubated at 4°C for 4 h. The beads were washed 4 times in NETN buffer (1% NP-40, 2 mM EDTA, 40 mM Tris-HCl, 137 mM NaCl, pH 7.4), resuspended in SDS-PAGE loading buffer and boiled for 5 min. For streptavidin agarose affinity assay, cells upon Bio-Eth were lysed; the lysates were incubated with streptavidin agarose, washed and boiled in SDS-PAGE loading buffer. […] Western blot assays were performed.
Figure 4 Eth is a direct activator of AMPK. (A): MCF-7, MDA-MB-231, or MDA-MB-436 cells were treated with increasing concentrations of Eth for 24 h, and AMPK activity assay was performed. (B): The binding mode of Eth docked into AMPK. (C): The binding mode of Eth docked into AMPK. α subunit is green, β subunit is cyan, γ subunit is magenta and Eth is gold. (D): Details of the binding site of Eth in the ADaM site of AMPK. The main residues involved in drug interactions are shown as labeled green sticks. α subunit is green, β subunit is cyan. The pSER-108 was shown in stick and colored by gold. (E) The interaction pattern of Eth with the residues. […] (H): Viability of MCF-7, MDA-MB-231 or MDA-MB-436 cells exposed to Biotin-Eth as determined by MTT assay. […]

MDA-MB-436 = assay: MTT cytotoxicity assay; type: cell-based; conditions: Homo sapiens, MDA-MB-436, 24 h
Source text: (§3) Human BC cell lines MCF-7, MDA-MB-231, DMA-MB-436, SK-BR3, MDA-MB-468, MDA-MB-453, and MDA-MB-435S and non-tumorigenic MCF-10A human mammary epithelial cells were obtained from American Type Culture Collection (ATCC; Manassas, VA, USA). MCF-7, SK-BR3, MDA-MB-231, and MDA-MB-436 cells were maintained in Dulbecco’s modified Eagle’s medium (DMEM; high glucose; Gibco; Thermo Fisher Scientific, Inc., Waltham, MA, USA) supplemented with 10% fetal bovine serum (FBS; HyClone; Logan, UT, USA) and antibiotics and incubated in a humidified atmosphere with 5% CO2 at 37°C. MDA-MB-468, MDA-MB-453, and MDA-MB-435S cells were maintained in Leibovitz’s L-15 (Gibco) supplemented with 10% FBS and antibiotics and incubated in a humidified atmosphere without CO2 at 37°C. MCF-10A cells were maintained in DMEM/F12 medium containing 5% horse serum (HS), insulin ([…]), epidermal growth factor (EGF, 20 ng/mL), choleratoxin ([…]), hydrocortisone ([…]), penicillin (50 U/mL), and streptomycin (50 U/mL), and incubated in a humidified atmosphere with CO2 at 37°C.
as §1

MCF-7 = assay: MTT cytotoxicity assay; type: cell-based; conditions: Homo sapiens, MCF7, MCF-7, 24 h
Source text: as §3, §1

MDA-MB-231 = assay: MTT cytotoxicity assay; type: cell-based; conditions: Homo sapiens, MDA-MB-231, 24 h
Source text: as §3, §1

[4] = system: AMPK/mTORC1 signaling in MCF-7, MDA-MB-231, and MDA-MB-436 cells; assay: Western blot of AMPK/mTORC1 signaling; type: cell-based, human; conditions: 24 h
Method: Cells were lysed in radioimmunoprecipitation assay buffer containing 50 mM Tris, pH 8.0, 150 mM NaCl, 0.1% SDS, 0.5% sodium deoxycholate, 1% NP-40, 1 mM DTT, 1 mM NaF, 1 mM sodium orthovanadate, 1 mM phenylmethylsulfonyl fluoride (PMSF; Sigma-Aldrich; Merck KGaA), and 1% protease inhibitors cocktail (EMD Millipore, Billerica, MA, USA). Protein concentration was determined using the Bradford method. Equal amounts of sample (25 µg) were separated by SDS-PAGE (8–12% gels). Electrophoresed proteins were then transferred onto polyvinylidene fluoride membranes (EMD Millipore, Billerica, MA, USA). The membranes were blocked with 5% skimmed milk in Tris-buffered saline at room temperature for 1 h. Following blocking, membranes were incubated overnight at 4°C with primary antibodies and then rinsed with Tris-buffered saline with Tween 20. The following primary antibodies were used: anti-Glut3 (1:500; catalog no. sc-74399) (Santa Cruz Biotechnology, Inc., Dallas, TX, USA); anti-LC3 (1:1000; catalog no. 12741), anti-AMPKα (1:1000; catalog no. 2532), anti-phospho-AMPKα (Thr172) (1:1000; catalog no. 2535), anti-phospho-AMPKβ1 (Ser108) (1:1000; catalog no. 4181), anti-AMPKγ1 (1:1000; catalog no. 4187), anti-mTOR (1:1000; catalog no. 2983), anti-phospho-mTOR (Ser2448) (1:1000; catalog no. 5536), anti-P70S6K (1:1000; catalog no. 9202), anti-phospho-P70S6K (Thr389) (1:1000; catalog no. 92775), anti-4E-BP1 (1:1000; catalog no. 9234), anti-phospho-4E-BP1 (Thr37/46) (1:1000; catalog no. 2855), anti-ACC (1:1000; catalog no. 3676), anti-phospho-ACC ([…]) (1:1000; catalog no. 11818), anti-Glut1 (1:1000; catalog no. 12939), anti-Glut4 (1:1000; catalog no. 2213) (All Cell Signaling Technology, Inc., Danvers, MA, USA), and anti-GAPDH (1:5000; catalog no. M20006; Abmart, Shanghai, China). Membranes were then washed, and incubated with horseradish peroxidase-conjugated secondary antibody (1:10000; E030120-01 and E030110-01; EarthOx, LLC, San Francisco, CA, USA) for 1.5 h at room temperature. The protein bands were visualized using SuperSignal® West Pico PLUS Chemiluminescent substrate (catalog no. 34579; Pierce; Thermo Fisher Scientific, Inc., Rockford, IL, USA) ([Zhang et al., 2018]).
as §2, with “signaling. (A): MCF-7, MDA-MB-231, or MDA-MB-436 cells were treated with increasing concentrations of Eth for 24 h. Western blot was performed using antibodies indicated.” for “signaling.”

Cn1cnc(=N)c2[nH]cnc21 [3-MA] was tested, and the “effect of 3-MA on cell proliferation inhibited by Eth” value [1] was “significantly reversed the cell proliferation inhibited by Eth”, the “effect of 3-MA on induction of autophagy by Eth” value ([2]; Eth 2.0 µM and 3-MA 1 mM) was “antagonize the induction of autophagy by Eth” and the “effect of 3-MA on upregulation of LC-3II and Beclin1 by Eth” value [3] was “antagonized the upregulation of autophagy-related proteins LC-3II and Beclin1”.

In the case of CN1c2c(ccc3cc4c(cc23)OCO4)-c2ccc3c(c2C1OC(=O)CCCCC1SCC2NC(=O)NC21)OCO3 (stereo not shown) [Bio-Eth], the “pull-down of AMPKα by streptavidin agarose” value (AMPKα) is reported as “AMPKα was pulled down by streptavidin agarose”, the IC50 (MDA-MB-436) is reported as 3.71 µM and the IC50 (MCF-7) is reported as 3.78 µM. For the same compound, the IC50 (MDA-MB-231) was 3.74 µM.

With c1cc(-c2cnn3cc(-c4ccc(OCCN5CCCCC5)cc4)cnc23)ccn1 [CC, reference compound] the “effect of CC on LC-3II expression and autophagic vacuoles in Eth-treated cells” value ([2]; Eth 2.0 µM and CC 25 µM) was “reversed the increased LC-3II expression and number of autophagic vacuoles” and the “effect of CC on Eth-induced reduction in mTORC1 phosphorylation” value ([4]; Eth 2.4, 2.0 or 2.0 µM and CC 25 µM) was “reversed the reduction in phosphorylation”.

With CN(C)C(=N)N=C(N)N [metformin, reference compound] the “effect of metformin co-treatment on Eth action on mTORC1 phosphorylation and autophagy” value ([4]; Eth 1.6, 1.0 or 1.6 µM and Met 10 mM) was “enhanced the effect of Eth on the phosphorylation of mTORC1 and autophagy”.

Reference: article PMC6960228, “Ethoxysanguinarine, a Novel Direct Activator of AMP-Activated Protein Kinase, Induces Autophagy and Exhibits Therapeutic Potential in Breast Cancer Cells” (Frontiers in Pharmacology, 2020)
